Source: patent US8574563B2 (Bristol-Myers Squibb Company, priority 2006, dated 2013)
Where two headings read alike, the source gives them in different places.

System: HCV 1b-377-neo replicon cells
Experiment: HCV replicon assay, HCV 1b-377-neo replicon cells (1b FRET)
Type: cell-based, Hepatitis C virus genotype 1b
Conditions: HCV 1b-377-neo replicon cells, HCV 1b genotype; for EC50: read-out: EC50 range against HCV 1b (Table 2, Range)
In short: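 Compounds were tested in genotype 1b subgenomic replicon cells carrying a neomycin marker, alongside a matched replicon line with an NS5A Y2065H substitution that confers resistance to a reference NS5A inhibitor.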

SMILES: COC(=O)N[C@@H](Cc1ccc(OP(=O)(O)OC)cc1)C(=O)N1CCC[C@H]1c1ncc(-c2ccc(-c3ccc(-c4cnc([C@@H]5CCCN5C(=O)[C@@H](NC(=O)OC)[C@@H](C)OC)[nH]4)cc3)cc2)[nH]1 [cj-92, methyl ((1S,2R)-1-(((2S)-2-(5-(4′-(2-((2S)-1-(O-(hydroxy(methoxy)phosphoryl)-N-(methoxycarbonyl)-L-tyrosyl)-2-pyrrolidinyl)-1H-imidazol-5-yl)-4-biphenylyl)-1H-imidazol-2-yl)-1-pyrrolidinyl)carbonyl)-2-methoxypropyl)carbamate]
- EC50 (Hepatitis C virus): 1 to 99 nM

SMILES: O=C([C@@H](O)C1CCCCC1)N1CCC[C@H]1c1ncc(-c2ccc(-c3ccc(-c4cnc([C@@H]5CCCN5C(=O)[C@@H](O)C5CCCCC5)[nH]4)cc3)cc2)[nH]1 [LS2, (1S,1′S)-2,2′-(4,4′-biphenyldiylbis(1H-imidazole-5,2-diyl(2S)-2,1-pyrrolidinediyl))bis(1-cyclohexyl-2-oxoethanol)]
- EC50 (Hepatitis C virus): 1 to 99 nM

SMILES: COC(=O)N[C@@H](C)C(=O)N1CCC[C@H]1c1ncc(-c2ccc(-c3ccc(-c4cnc([C@@H]5CCCN5C(=O)[C@@H]5CCC[C@H]5NC(=O)OC)[nH]4)cc3)cc2)[nH]1 [cj-108, methyl ((1R,2R)-2-(((2S)-2-(5-(4′-(2-((2S)-1-(N-(methoxycarbonyl)-L-alanyl)-2-pyrrolidinyl)-1H-imidazol-5-yl)-4-biphenylyl)-1H-imidazol-2-yl)-1-pyrrolidinyl)carbonyl)cyclopentyl)carbamate]
- EC50 (Hepatitis C virus): 0.001 to 0.999 nM

SMILES: COC(=O)N[C@@H](Cc1c[nH]nn1)C(=O)N1CCC[C@H]1c1ncc(-c2ccc(-c3ccc(-c4cnc([C@@H]5CCCN5C(=O)[C@@H](NC(=O)OC)[C@@H](C)OC)[nH]4)cc3)cc2)[nH]1 [cj-35, methyl ((1S)-2-((2S)-2-(5-(4′-(2-((2S)-1-((2S,3R)-3-methoxy-2-((methoxycarbonyl)amino)butanoyl)-2-pyrrolidinyl)-1H-imidazol-5-yl)-4-biphenylyl)-1H-imidazol-2-yl)-1-pyrrolidinyl)-2-oxo-1-(1H-1,2,3-triazol-4-ylmethyl)ethyl)carbamate]
- EC50 (Hepatitis C virus): 1 to 99 nM

SMILES: C[C@@H](C(=O)N1CCC[C@H]1c1ncc(-c2ccc(-c3ccc(-c4cnc([C@@H]5CCCN5C(=O)[C@H](C)N(C)C)[nH]4)cc3)cc2)[nH]1)N(C)C [Example M19, (2S,2′S)-1,1′-(4,4′-biphenyldiylbis(1H-imidazole-5,2-diyl(2S)-2,1-pyrrolidinediyl))bis(N,N-dimethyl-1-oxo-2-propanamine)]
- EC50 range against HCV 1b (Table 2, Range): >A

SMILES: C[C@@H](c1ncc(-c2ccc(-c3ncc(-c4cnc([C@@H]5CCCN5C(=O)[C@@H](c5ccccc5)N5CCCCC5)[nH]4)cn3)cc2)[nH]1)N(C)C(=O)[C@@H](c1ccccc1)N1CCCCC1 [Example 152j-6, (2R)-N-methyl-2-phenyl-N-((1S)-1-(4-(4-(5-(2-((2S)-1-((2R)-2-phenyl-2-(1-piperidinyl)acetyl)-2-pyrrolidinyl)-1H-imidazol-5-yl)-2-pyrimidinyl)phenyl)-1H-imidazol-2-yl)ethyl)-2-(1-piperidinyl)acetamide]
- EC50 (Hepatitis C virus): 0.001 to 0.999 nM

SMILES: COC(=O)N[C@@H](C(=O)N1CCC[C@H]1c1ncc(-c2ccc(-c3ccc(-c4cnc([C@@H]5CCCN5C(=O)[C@@H]5C[C@H](F)CN5)[nH]4)cc3)cc2)[nH]1)c1ccccc1 [Example 79, methyl ((1R)-2-((2)S-2-(5-(4′-(2-((2S)-1-((4S)-4-fluoro-L-prolyl)-2-pyrrolidinyl)-1H-imidazol-5-yl)-4-biphenylyl)-1H-imidazol-2-yl)-1-pyrrolidinyl)-2-oxo-1-phenylethyl)carbamate]
- EC50: 0.001 to 0.999 nM

SMILES: COC(=O)N[C@H]1CCC[C@@H]1C(=O)N1CCC[C@H]1c1ncc(-c2ccc(-c3ccc(-c4cnc([C@@H]5CCCN5C(=O)[C@H](NC(=O)OC)c5ccccc5)[nH]4)cc3)cc2)[nH]1 [cj-117, methyl ((1R)-2-((2S)-2-(5-(4′-(2-((2S)-1-(((1S,2S)-2-((methoxycarbonyl)amino)cyclopentyl)carbonyl)-2-pyrrolidinyl)-1H-imidazol-5-yl)-4-biphenylyl)-1H-imidazol-2-yl)-1-pyrrolidinyl)-2-oxo-1-phenylethyl)carbamate]
- EC50 (Hepatitis C virus): 0.001 to 0.999 nM

SMILES: CCN(CC)[C@@H](C(=O)N1CCC[C@H]1c1ncc(-c2ccc(-c3ccc(-c4cnc([C@@H]5CCCN5C(=O)N5CCOCC5)[nH]4)cc3)cc2)[nH]1)c1ccccc1 [Example M51, (1R)-N,N-diethyl-2-((2S)-2-(5-(4′-(2-((2S)-1-(4-morpholinylcarbonyl)-2-pyrrolidinyl)-1H-imidazol-5-yl)-4-biphenylyl)-1H-imidazol-2-yl)-1-pyrrolidinyl)-2-oxo-1-phenylethanamine]
- EC50 (Hepatitis C virus): 1 to 99 nM

SMILES: O=C(C(c1ccccc1)c1ccccc1)N1CCC[C@H]1c1ncc(-c2ccc(-c3ccc(-c4cnc([C@@H]5CCCN5C(=O)[C@@H](c5ccccc5)N5CCCCC5)[nH]4)cc3)cc2)[nH]1 [Example 107-6, 1-((1R)-2-((2S)-2-(5-(4′-(2-((2S)-1-(diphenylacetyl)-2-pyrrolidinyl)-1H-imidazol-5-yl)-4-biphenylyl)-1H-imidazol-2-yl)-1-pyrrolidinyl)-2-oxo-1-phenylethyl) piperidine]
- EC50 (Hepatitis C virus): 0.001 to 0.999 nM

SMILES: O=C(c1ccccc1)N1CCC[C@H]1c1ncc(-c2ccc(-c3ccc(-c4cnc([C@@H]5CCCN5C(=O)c5ccccc5)[nH]4)cc3)cc2)[nH]1 [Example 6, 5,5′-(4,4′-biphenyldiyl)bis(2-((2S)-1-benzoyl-2-pyrrolidinyl)-1H-imidazole)]
- EC50 (Hepatitis C virus): 1 to 99 nM

SMILES: O=CN[C@@H](C(=O)N1CCC[C@H]1c1ncc(-c2ccc(-c3ccc(-c4cnc([C@@H]5CCCN5C(=O)[C@H](NC=O)c5ccccc5)[nH]4)cc3)cc2)[nH]1)c1ccccc1 [Example 23, N,N′-(4,4′-biphenyldiylbis(1H-imidazole-5,2-diyl(2S)-2,1-pyrrolidinediyl((1R)-2-oxo-1-phenyl-2,1-ethanediyl)))diformamide]
- EC50 (Hepatitis C virus): 0.001 to 0.999 nM

SMILES: CNC(=O)c1nc([C@@H]2CCCN2C(=O)[C@H](NC(=O)OC)c2ccccc2)[nH]c1-c1ccc(-c2ccc(-c3cnc([C@@H]4CCCN4C(=O)[C@H](NC(=O)OC)c4ccccc4)[nH]3)cc2)cc1 [Example J25, methyl ((1R)-2-((2S)-2-(5-(4′-(2-((2S)-1-((2R)-2-((methoxycarbonyl)amino)-2-phenylacetyl)-2-pyrrolidinyl)-1H-imidazol-5-yl)-4-biphenylyl)-4-(methylcarbamoyl)-1H-imidazol-2-yl)-1-pyrrolidinyl)-2-oxo-1-phenylethyl)carbamate]
- EC50 (Hepatitis C virus): 0.001 to 0.999 nM

SMILES: COC(=O)N[C@H](C(=O)N1CCC[C@H]1c1ncc(-c2ccc(-c3ccc(-c4nc([C@@H]5CCCN5C(=O)[C@@H](NC(=O)OC)[C@@H](C)OC)[nH]c4CC(OC)OC)cc3)cc2)[nH]1)[C@@H](C)OC [Example J14a, methyl ((1S,2R)-1-(((2S)-2-(4-(2,2-dimethoxyethyl)-5-(4′-(2-((2S)-1-(N-(methoxycarbonyl)-O-methyl-L-threonyl)-2-pyrrolidinyl)-1H-imidazol-4-yl)-4-biphenylyl)-1H-imidazol-2-yl)-1-pyrrolidinyl)carbonyl)-2-methoxypropyl)carbamate]
- EC50 (Hepatitis C virus): 0.001 to 0.999 nM

SMILES: COC(=O)N[C@@H](C(=O)N1CCC[C@H]1c1ncc(-c2ccc(-c3ccc(-c4cnc([C@@H]5CCCN5C(=O)Cc5ccccc5CN(C)C)[nH]4)cc3)cc2)[nH]1)c1ccccc1 [Example 84-87, methyl ((1R)-2-((2S)-2-(5-(4′-(2-((2S)-1-((2-((dimethylamino)methyl)phenyl)acetyl)-2-pyrrolidinyl)-1H-imidazol-5-yl)-4-biphenylyl)-1H-imidazol-2-yl)-1-pyrrolidinyl)-2-oxo-1-phenylethyl)carbamate]
- EC50 (Hepatitis C virus): 0.001 to 0.999 nM

SMILES: COC(=O)N[C@@H](C(=O)N(C)[C@@H](C)c1ncc(-c2ccc(-c3ccc(-c4cnc([C@@H]5CCCN5C(=O)[C@@H](c5ccccc5)N(C)C)[nH]4)cc3)cc2)[nH]1)c1ccccc1 [Example 131.1-1, methyl ((1R)-2-(((1S)-1-(5-(4′-(2-((2S)-1-((2R)-2-(dimethylamino)-2-phenylacetyl)-2-pyrrolidinyl)-1H-imidazol-5-yl)-4-biphenylyl)-1H-imidazol-2-yl)ethyl)(methyl)amino)-2-oxo-1-phenylethyl)carbamate]
- EC50 (Hepatitis C virus): 0.001 to 0.999 nM

SMILES: COC(=O)N[C@@H](C)C(=O)N1CCC[C@H]1c1ncc(-c2ccc(-c3ccc(-c4nc([C@@H]5CCCN5C(=O)[C@H](C)NC(=O)OC)[nH]c4CO)cc3)cc2)[nH]1 [Example J14f.1, methyl ((1S)-2-((2S)-2-(4-(4′-(4-(hydroxymethyl)-2-((2S)-1-(N-(methoxycarbonyl)-L-alanyl)-2-pyrrolidinyl)-1H-imidazol-5-yl)-4-biphenylyl)-1H-imidazol-2-yl)-1-pyrrolidinyl)-1-methyl-2-oxoethyl)carbamate]
- EC50 (Hepatitis C virus): 1 to 99 nM

SMILES: CCN(CC)[C@@H](C(=O)N1CCC[C@H]1c1ncc(-c2cnc(-c3ccc(-c4[nH]c([C@@H]5CCCN5C(=O)[C@@H](c5ccccc5)N(CC)CC)nc4C(F)(F)F)cc3)nc2)[nH]1)c1ccccc1 [Example J47, (1R)-2-((2S)-2-(5-(4-(5-(2-((2S)-1-((2R)-2-(diethylamino)-2-phenylacetyl)-2-pyrrolidinyl)-1H-imidazol-5-yl)-2-pyrimidinyl)phenyl)-4-(trifluoromethyl)-1H-imidazol-2-yl)-1-pyrrolidinyl)-N,N-diethyl-2-oxo-1-phenylethanamine]
- EC50 (Hepatitis C virus): 0.001 to 0.999 nM

SMILES: COC(=O)N[C@@H](C)C(=O)N1CCC[C@H]1c1ncc(-c2ccc(-c3ccc(-c4cnc([C@@H]5CCCN5C(=O)[C@H](Cc5ccc(OCc6ccccc6)cc5)NC(=O)OC)[nH]4)cc3)cc2)[nH]1 [cj-107, methyl ((1S)-1-(4-(benzyloxy)benzyl)-2-((2S)-2-(5-(4′-(2-((2S)-1-(N-(methoxycarbonyl)-L-alanyl)-2-pyrrolidinyl)-1H-imidazol-5-yl)-4-biphenylyl)-1H-imidazol-2-yl)-1-pyrrolidinyl)-2-oxoethyl)carbamate]
- EC50 (Hepatitis C virus): 0.001 to 0.999 nM
